The text below walks through data of patent US20230167114A1, “MACROCYCLIC JAK INHIBITOR AND USE THEREOF” (Biopolar Hongye (Guangdong) Pharmaceutical Co., Ltd., priority 2020, published 2023).

Structures are written as SMILES.

What all share (type): biochemical
One assay concerns the target JAK2 (Homo sapiens, UniProt O60674). Kind of assay: JAK kinase activity, homogeneous time-resolved fluorescence (JAK2 reaction system). The note with it: ATP 2 μM, JAK2 protein 0.01 ng/μL. The procedure: (§1) The activity measurement method of JAK kinase was to use homogeneous time-resolved fluorescence technique. The reaction was performed in 384 shallow well plates with a total reaction volume of 10 μL. The mixture of kinase protein, compound, ATP and substrate was carried out in a reaction buffer of 50 mM Hepes (pH7.0), NaN3 0.02%, BSA 0.01%, 0.1 mM orthocanadate, 5 mM MgCl2, and 1 mM DTT. After reacting for 1 hour, antibody capable of recognizing substrate phosphorylation and dye XL-615 and detection buffer (Cisbio) containing EDTA were added to the system. The reaction signal of kinase was detected by PE company's porous plate detector. The parameter settings were excitation light at 320 nm, emission light at 615 nm and 665 nm. The activity of JAK is indirectly reflected by the signal ratio of 665 nm and 615 nm. In the reaction, the background well without enzyme and the total enzyme activity well without compound were set.
(§2) The IC50 value of the compound inhibiting protein was obtained by the formula: Y=100/(1+10^((Log IC50−X)*HillSlope)).
In JAK2 reaction system, the concentration of ATP was 2 μM, and the concentration of JAK2 protein was 0.01 ng/μL.

In a further assay the target is TYK2 (Homo sapiens, UniProt P29597). Kind of assay: JAK kinase activity, homogeneous time-resolved fluorescence (TYK2 reaction system). As to conditions: ATP 2 μM, TYK2 protein 0.2 ng/μL; read-out: TYK 2 activity. Here is the method: as §1, §2
In TYK2 reaction system, the concentration of ATP was 2 μM and the concentration of TYK2 protein was 0.2 ng/μL.

The target in the next assay is T1, JAK3 (Homo sapiens, UniProt P52333).
T1 sequence (P52333 1-1124): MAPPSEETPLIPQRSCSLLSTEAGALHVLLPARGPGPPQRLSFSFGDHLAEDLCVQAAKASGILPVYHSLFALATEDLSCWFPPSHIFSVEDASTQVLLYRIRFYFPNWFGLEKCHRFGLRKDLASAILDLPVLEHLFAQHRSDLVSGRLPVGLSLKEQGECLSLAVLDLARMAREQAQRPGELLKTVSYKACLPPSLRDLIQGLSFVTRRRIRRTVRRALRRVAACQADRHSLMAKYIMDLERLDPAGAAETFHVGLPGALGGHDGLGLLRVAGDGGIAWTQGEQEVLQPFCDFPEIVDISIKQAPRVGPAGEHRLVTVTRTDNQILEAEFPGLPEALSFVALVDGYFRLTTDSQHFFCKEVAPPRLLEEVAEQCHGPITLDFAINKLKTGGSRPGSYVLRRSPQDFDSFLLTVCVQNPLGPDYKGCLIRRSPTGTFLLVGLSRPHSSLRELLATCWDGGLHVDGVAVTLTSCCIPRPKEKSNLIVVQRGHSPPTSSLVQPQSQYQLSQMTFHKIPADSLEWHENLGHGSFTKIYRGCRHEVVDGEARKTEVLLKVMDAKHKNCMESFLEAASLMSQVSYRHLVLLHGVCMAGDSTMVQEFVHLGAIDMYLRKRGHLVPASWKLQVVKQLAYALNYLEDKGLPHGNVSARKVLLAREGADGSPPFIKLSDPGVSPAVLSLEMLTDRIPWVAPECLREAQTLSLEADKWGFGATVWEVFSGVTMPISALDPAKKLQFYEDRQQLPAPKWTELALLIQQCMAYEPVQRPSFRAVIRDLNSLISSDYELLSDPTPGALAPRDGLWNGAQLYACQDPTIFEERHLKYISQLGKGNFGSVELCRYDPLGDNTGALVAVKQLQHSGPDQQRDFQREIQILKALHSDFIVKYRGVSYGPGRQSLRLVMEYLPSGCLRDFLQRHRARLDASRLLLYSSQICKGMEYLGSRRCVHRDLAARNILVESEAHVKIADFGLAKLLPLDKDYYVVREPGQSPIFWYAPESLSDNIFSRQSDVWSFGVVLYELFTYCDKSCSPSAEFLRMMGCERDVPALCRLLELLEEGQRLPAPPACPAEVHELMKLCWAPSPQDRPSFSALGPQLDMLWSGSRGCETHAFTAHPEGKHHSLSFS
Put plainly: JAK kinase activity, homogeneous time-resolved fluorescence (JAK3 reaction system). The note with it: ATP 2 μM, JAK3 protein 0.04 ng/μL; read-out: JAK 3 activity. The procedure:
as §1, §2
In JAK3 reaction system, the concentration of ATP was 2 μM, and the concentration of JAK3 protein was 0.04 ng/μL.

Another assay addresses JAK1 (Homo sapiens, UniProt P23458). Kind of assay: JAK kinase activity, homogeneous time-resolved fluorescence (JAK1 reaction system). The note with it: ATP 2 μM, JAK1 protein 0.2 ng/μL; read-out: JAK 1 activity. Here is the method:
as §1, §2
In JAK1 reaction system, the concentration of ATP was 2 μM, and the concentration of JAK1 protein was 0.2 ng/μL.

Sequence of JAK1 (P23458 whole entry): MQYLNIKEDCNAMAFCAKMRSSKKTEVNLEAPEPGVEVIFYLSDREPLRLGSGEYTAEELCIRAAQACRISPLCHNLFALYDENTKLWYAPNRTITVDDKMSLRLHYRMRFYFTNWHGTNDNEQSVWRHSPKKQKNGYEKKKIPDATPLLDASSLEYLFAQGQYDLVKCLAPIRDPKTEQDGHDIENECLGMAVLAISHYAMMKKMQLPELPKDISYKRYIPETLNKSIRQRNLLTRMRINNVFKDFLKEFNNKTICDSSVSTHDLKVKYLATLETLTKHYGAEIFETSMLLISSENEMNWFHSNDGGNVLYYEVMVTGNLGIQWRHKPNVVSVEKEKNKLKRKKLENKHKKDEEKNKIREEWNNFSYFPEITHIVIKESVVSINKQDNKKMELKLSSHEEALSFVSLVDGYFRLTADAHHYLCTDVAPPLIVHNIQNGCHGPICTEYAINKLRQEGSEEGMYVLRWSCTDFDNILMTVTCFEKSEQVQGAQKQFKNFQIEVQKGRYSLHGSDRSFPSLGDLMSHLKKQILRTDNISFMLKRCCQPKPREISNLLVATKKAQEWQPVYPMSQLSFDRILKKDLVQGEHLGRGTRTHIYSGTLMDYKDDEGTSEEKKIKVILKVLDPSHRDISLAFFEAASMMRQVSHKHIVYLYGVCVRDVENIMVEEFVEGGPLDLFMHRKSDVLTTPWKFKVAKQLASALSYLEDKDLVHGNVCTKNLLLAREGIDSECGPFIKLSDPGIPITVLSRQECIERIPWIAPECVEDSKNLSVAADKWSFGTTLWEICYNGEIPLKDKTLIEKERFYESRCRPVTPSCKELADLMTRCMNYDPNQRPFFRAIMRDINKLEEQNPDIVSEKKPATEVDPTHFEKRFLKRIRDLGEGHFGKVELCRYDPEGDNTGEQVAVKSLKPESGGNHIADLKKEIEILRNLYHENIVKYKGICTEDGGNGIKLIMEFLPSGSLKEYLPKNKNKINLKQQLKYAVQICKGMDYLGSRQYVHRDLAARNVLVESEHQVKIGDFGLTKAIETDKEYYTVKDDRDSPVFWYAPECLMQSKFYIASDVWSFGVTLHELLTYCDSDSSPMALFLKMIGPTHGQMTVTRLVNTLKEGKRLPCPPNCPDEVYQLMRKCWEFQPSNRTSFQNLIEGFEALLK
Sequence of JAK2 (O60674 whole entry): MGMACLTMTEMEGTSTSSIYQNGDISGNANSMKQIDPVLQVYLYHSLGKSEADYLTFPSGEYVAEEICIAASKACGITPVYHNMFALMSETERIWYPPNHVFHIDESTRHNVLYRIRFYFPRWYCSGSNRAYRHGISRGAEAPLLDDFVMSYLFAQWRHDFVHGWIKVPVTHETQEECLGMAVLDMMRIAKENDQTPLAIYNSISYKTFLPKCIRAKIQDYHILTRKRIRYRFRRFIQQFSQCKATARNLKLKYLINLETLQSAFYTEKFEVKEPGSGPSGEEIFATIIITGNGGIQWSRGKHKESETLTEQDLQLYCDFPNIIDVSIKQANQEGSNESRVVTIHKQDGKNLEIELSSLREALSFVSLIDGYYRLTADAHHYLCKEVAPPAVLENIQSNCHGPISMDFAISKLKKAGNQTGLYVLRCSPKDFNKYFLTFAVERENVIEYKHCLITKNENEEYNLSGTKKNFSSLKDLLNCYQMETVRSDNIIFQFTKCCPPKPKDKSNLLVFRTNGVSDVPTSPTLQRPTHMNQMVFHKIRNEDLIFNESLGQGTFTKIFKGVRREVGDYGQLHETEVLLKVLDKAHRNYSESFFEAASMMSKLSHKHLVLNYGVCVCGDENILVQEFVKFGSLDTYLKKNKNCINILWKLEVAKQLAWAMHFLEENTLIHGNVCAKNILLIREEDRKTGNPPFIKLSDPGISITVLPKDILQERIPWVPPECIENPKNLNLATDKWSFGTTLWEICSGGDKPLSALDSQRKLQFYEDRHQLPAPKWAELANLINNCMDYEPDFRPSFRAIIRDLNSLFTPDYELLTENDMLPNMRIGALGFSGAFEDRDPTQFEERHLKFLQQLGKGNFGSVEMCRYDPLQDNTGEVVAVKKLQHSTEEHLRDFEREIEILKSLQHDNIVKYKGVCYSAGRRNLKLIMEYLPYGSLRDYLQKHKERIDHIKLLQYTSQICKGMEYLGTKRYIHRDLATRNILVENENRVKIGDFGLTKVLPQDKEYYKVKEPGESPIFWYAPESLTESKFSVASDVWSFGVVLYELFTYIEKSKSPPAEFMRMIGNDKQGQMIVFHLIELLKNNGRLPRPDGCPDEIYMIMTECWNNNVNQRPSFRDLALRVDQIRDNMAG
Sequence of TYK2 (P29597 whole entry): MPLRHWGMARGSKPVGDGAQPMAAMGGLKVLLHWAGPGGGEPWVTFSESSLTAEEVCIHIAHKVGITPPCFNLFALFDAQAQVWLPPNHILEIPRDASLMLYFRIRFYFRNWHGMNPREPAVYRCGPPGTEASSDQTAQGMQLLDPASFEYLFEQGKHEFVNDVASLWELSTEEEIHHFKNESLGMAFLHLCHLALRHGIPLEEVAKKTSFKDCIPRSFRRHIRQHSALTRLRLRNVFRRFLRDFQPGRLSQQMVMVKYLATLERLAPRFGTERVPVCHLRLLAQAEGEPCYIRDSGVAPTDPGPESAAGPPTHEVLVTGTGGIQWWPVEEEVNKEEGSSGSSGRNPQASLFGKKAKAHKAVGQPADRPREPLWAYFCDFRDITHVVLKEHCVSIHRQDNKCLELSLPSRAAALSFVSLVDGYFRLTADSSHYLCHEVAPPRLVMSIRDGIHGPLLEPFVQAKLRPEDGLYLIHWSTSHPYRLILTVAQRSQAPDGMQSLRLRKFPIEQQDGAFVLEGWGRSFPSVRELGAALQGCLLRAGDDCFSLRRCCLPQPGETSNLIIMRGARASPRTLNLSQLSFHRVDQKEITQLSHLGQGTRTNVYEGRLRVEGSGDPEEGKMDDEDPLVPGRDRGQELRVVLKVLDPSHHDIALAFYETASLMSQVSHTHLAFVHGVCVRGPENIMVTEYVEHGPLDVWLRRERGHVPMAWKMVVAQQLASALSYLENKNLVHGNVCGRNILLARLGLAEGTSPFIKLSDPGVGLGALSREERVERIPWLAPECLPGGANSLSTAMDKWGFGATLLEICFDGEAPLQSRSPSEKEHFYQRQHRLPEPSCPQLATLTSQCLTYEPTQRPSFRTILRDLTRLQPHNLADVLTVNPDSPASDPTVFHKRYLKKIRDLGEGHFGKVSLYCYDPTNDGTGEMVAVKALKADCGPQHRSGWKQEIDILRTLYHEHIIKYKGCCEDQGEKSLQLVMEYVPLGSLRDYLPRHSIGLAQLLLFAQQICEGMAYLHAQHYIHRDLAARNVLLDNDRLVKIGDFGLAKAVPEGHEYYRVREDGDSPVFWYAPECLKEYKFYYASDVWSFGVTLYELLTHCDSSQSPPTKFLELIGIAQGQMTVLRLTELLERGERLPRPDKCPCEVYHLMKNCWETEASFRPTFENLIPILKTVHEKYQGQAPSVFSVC

Regarding `Cc1cnc2nc1Nc1cccc(c1)CCCNC(=O)c1ccc(cc1)-c1cnc(F)c(c1)N2` [Compound 17, 2^6-fluoro-4^5-methyl-3,5,10-triaza-4(2,4)-pyrimidina-2(3,5)-pyridina-1(1,4),6(1,3)-dibenzenacycloundecaphan-11-one], the IC50 is under 10 nM against JAK2, 11 to 100 nM on TYK2, 11 to 100 nM on JAK3 and under 10 nM on JAK1.

Regarding `Cc1cnc2nc1Nc1cccc(c1)CCCCNC(=O)c1ccc(cc1)-c1cnc(F)c(c1)N2` [Compound 18, 2^6-fluoro-4^5-methyl-3,5,11-triaza-4(2,4)-pyrimidina-2(3,5)-pyridina-1(1,4),6(1,3)-dibenzenacyclododecaphan-12-one], the IC50 on JAK2 is under 10 nM; at TYK2, 11 to 100 nM; at JAK3, under 10 nM; at JAK1, under 10 nM.

With `COC(=O)c1cc2ccc1C(=O)NCCCCCNc1nc(ncc1C)Nc1cc-2cnc1F` [Compound 19, methyl 2^6-fluoro-4^5-methyl-12-oxo-3,5,11-triaza-4(2,4)-pyrimidina-2(3,5)-pyridina-1(1,4)-benzenacyclododecaphane-1^3-carboxylate], the IC50 is 101 to 1000 nM against JAK2, over 10000 nM on TYK2, 1000 to 10000 nM on JAK3 and 101 to 1000 nM on JAK1.

Regarding `Cc1cnc2nc1NCCCCCNC(=O)c1ccc(cc1S(C)(=O)=O)-c1cnc(F)c(c1)N2` [Compound 20, 2^6-fluoro-4^5-methyl-1^3-methylsulfonyl-3,5,11-triaza-4(2,4)-pyrimidina-2(3,5)-pyridina-1(1,4)-benzenacyclododecaphan-12-one], the IC50 against JAK2 was 1000 to 10000 nM; on TYK2, over 10000 nM; on JAK3 it was 1000 to 10000 nM; on JAK1 it was 11 to 100 nM.

Regarding `Cc1cnc2nc1NCCCCCNC(=O)c1ccc(cc1C(=O)O)-c1cnc(F)c(c1)N2` [Compound 21], the IC50 on JAK2 was in the range of 11 to 100 nM; at TYK2 it was 1000 to 10000 nM; at JAK3, 101 to 1000 nM; at JAK1 it was 101 to 1000 nM.

In the case of `Cc1cnc2nc1Nc1cccc(c1)CCNC(=O)c1ccc(cc1)-c1cnc(F)c(c1)N2` [Compound 22, 2^6-fluoro-4^5-methyl-3,5,9-triaza-4(2,4)-pyrimidina-2(3,5)-pyridina-1(1,4),6(1,3)-dibenzenacyclodecaphan-10-one], the IC50 against JAK2 was under 10 nM; at TYK2, 11 to 100 nM; at JAK3, under 10 nM; on JAK1, under 10 nM.

Turning to `Cc1cnc2nc1Nc1cccc(c1)CCCNC(=O)c1ccc(cc1F)-c1cnc(F)c(c1)N2` [Compound 23, 1^3,2^6-difluoro-4^5-methyl-3,5,10-triaza-4(2,4)-pyrimidina-2(3,5)-pyridina-1(1,4),6(1,3)-dibenzenacycloundecaphan-11-one], the IC50 was under 10 nM against JAK2, 101 to 1000 nM at TYK2, 101 to 1000 nM on JAK3 and under 10 nM at JAK1.

Regarding `Cc1cnc2nc1Nc1cccc(c1)CCNC(=O)c1ccc(cc1S(C)(=O)=O)-c1cnc(F)c(c1)N2` [Compound 24, 2^6-fluoro-4^5-methyl-1^3-(methylsulfonyl)-3,5,9-triaza-4(2,4)-pyrimidina-2(3,5)-pyridina-1(1,4),6(1,3)-dibenzenacyclodecaphan-10-one], the IC50 on JAK2 is under 10 nM; at TYK2, 101 to 1000 nM; on JAK3 it was 11 to 100 nM; at JAK1, under 10 nM.

As to `Cc1cnc2nc1Nc1cccc(c1)CCCNC(=O)c1ccc(cc1S(C)(=O)=O)-c1cnc(F)c(c1)N2` [Compound 25, 2^6-fluoro-4^5-methyl-1^3-(methylsulfonyl)-3,5,10-triaza-4(2,4)-pyrimidina-2(3,5)-pyridina-1(1,4),6(1,3)-dibenzenacycloundecaphan-11-one], the IC50 on JAK2 is under 10 nM; at TYK2 it was 101 to 1000 nM; at JAK3, 11 to 100 nM; at JAK1 it was under 10 nM.

Consider `Cc1cnc2nc1NCCCCCNC(=O)c1ccc(c(S(C)(=O)=O)c1)-c1cnc(F)c(c1)N2` [Compound 26, 2^6-fluoro-4^5-methyl-1^2-(methylsulfonyl)-3,5,11-triaza-4(2,4)-pyrimidina-2(3,5)-pyridina-1(1,4)-benzenacyclododecaphan-12-one], for which the IC50 was 1000 to 10000 nM against JAK2, over 10000 nM on TYK2, 1000 to 10000 nM on JAK3 and 1000 to 10000 nM on JAK1.

For `Cc1cnc2nc1Nc1ccc(F)c(c1)CCNC(=O)c1ccc(cc1S(C)(=O)=O)-c1cnc(F)c(c1)N2` [Compound 27, 2^6,6^4-difluoro-4^5-methyl-1^3(methylsulfonyl)-3,5,9-triaza-4(2,4)-pyrimidina-2(3,5)-pyridina-1(1,4),6(1,3)-dibenzenacyclodecaphan-10-one], the IC50 against JAK2 is 101 to 1000 nM; on TYK2, over 10000 nM; on JAK3, 101 to 1000 nM; on JAK1, 11 to 100 nM.

On to `Cc1cnc2nc1Nc1cccc(c1)CCNC(=O)c1ccc(cc1F)-c1cnc(F)c(c1)N2` [Compound 28, 1^3,2^6-difluoro-4^5-methyl-3,5,9-triaza-4(2,4)-pyrimidina-2(3,5)-pyridina-1(1,4),6(1,3)-dibenzenacyclodecaphan-10-one], for which the IC50 was 11 to 100 nM on JAK2, 1000 to 10000 nM on TYK2, 11 to 100 nM at JAK3 and under 10 nM at JAK1.

Turning to `Cc1cnc2nc1Nc1cc(ccc1F)CCNC(=O)c1ccc(cc1S(C)(=O)=O)-c1cnc(F)c(c1)N2` [Compound 29, 2^6,6^6-difluoro-4^5-methyl-1^3(methylsulfonyl)-3,5,9-triaza-4(2,4)-pyrimidina-2(3,5)-pyridina-1(1,4),6(1,3)-dibenzenacyclodecaphan-10-one], the IC50 was 101 to 1000 nM on JAK2, over 10000 nM at TYK2, 1000 to 10000 nM at JAK3 and 11 to 100 nM at JAK1.

On to `Cc1cnc2nc1Nc1ccccc1CCNC(=O)c1ccc(cc1F)-c1cnc(F)c(c1)N2` [Compound 30, 1^3,6^6-difluoro-4^5-methyl-1^3-3,5,9-triaza-4(2,4)-pyrimidina-1(5,2),2(3,5)-dipyridina-6(1,2)-benzenacyclodecaphan-10-one], for which the IC50 on JAK2 lay within 11 to 100 nM; at TYK2, 1000 to 10000 nM; on JAK3 it was 101 to 1000 nM; on JAK1, 11 to 100 nM.

Take `Cc1cnc2nc1Nc1cccc(c1)CCCNC(=O)c1c(F)cc(cc1F)-c1cnc(F)c(c1)N2` [Compound 31, 1^3,1^5,2^6-trifluoro-4^5-methyl-3,5,10-triaza-4(2,4)-pyrimidina-2(3,5)-pyridina-1(1,4),6(1,3)-dibenzenacycloundecaphan-11-one]: the IC50 on JAK2 is 101 to 1000 nM; on TYK2 it was over 10000 nM; on JAK3, 1000 to 10000 nM; at JAK1, 101 to 1000 nM.

On to `Cc1cnc2nc1Nc1ccccc1CCCNC(=O)c1ccc(cc1F)-c1cnc(F)c(c1)N2` [Compound 32, 1^3,2^6-difluoro-4^5-methyl-3,5,10-triaza-4(2,4)-pyridina-1(5,2),2(3,5)-dipyridina-6(1,2)-benzenacycloundecaphan-11-one], for which the IC50 on JAK2 was 11 to 100 nM; on TYK2, 1000 to 10000 nM; at JAK3, 101 to 1000 nM; on JAK1 it was 11 to 100 nM.
